Where two headings read alike, the source gives them in different places.
Experiments:
[1] = tested on: Key Broadleaf Weed and Crop Species; assay: Post-Emergent Test II (Table 5); type: in vivo; conditions: post-emergence, 336 h; for pest or weed control at 70 g/ha: application rate 70 (kg ai/ha; footnote: g ai/ha); for pest or weed control at 140 g/ha: application rate 140 (kg ai/ha; footnote: g ai/ha)
Summary of the method: (§1)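 Growth stage at treatment: first or second true leaf. Application: compound in acetone/DMSO diluted into an adjuvant-containing aqueous mix, sprayed at 187 L/ha at several rates. Assessment: visual 0-100% injury at 14 days against untreated plants.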

[2] = tested on: Key Grass and Sedge Weeds as well as Grass Crops; assay: Post-Emergent Test II (Table 6); type: in vivo; conditions: post-emergence, 336 h, 14 days after application; for pest or weed control at 70 g/ha: 70 g ai/ha; for pest or weed control at 140 g/ha: 140 g ai/ha
Summary of the method: as §1

[3] = Abutilon theophrasti, ABUTH: velvetleaf (Abutilon theophrasti), read-out: Visual Growth Reduction (%) 14 Days After Application ABUTH
[4] = Amaranthus retroflexus, AMARE: redroot pigweed (Amaranthus retroflexus), read-out: Visual Growth Reduction (%) 14 Days After Application AMARE
[5] = Brassica napus, BRSSS: oilseed rape, canola (Brassica napus), read-out: Visual Growth Reduction (%) 14 Days After Application BRSSS
[6] = Chenopodium album, CHEAL: lambsquarters (Chenopodium album), read-out: Visual Growth Reduction (%) 14 Days After Application CHEAL
[7] = Euphorbia heterophylla, EPHHL: wild poinsettia (Euphorbia heterophylla), read-out: Visual Growth Reduction (%) 14 Days After Application EPHHL
[8] = Helianthus annuus, HELAN: sunflower (Helianthus annuus), read-out: Visual Growth Reduction (%) 14 Days After Application HELAN
[9] = Viola tricolor, VIOTR: wild pansy (Viola tricolor), read-out: Visual Growth Reduction (%) 14 Days After Application VIOTR
[10] = CYPSS, read-out: Visual Growth Reduction (%) 14 Days After Application CYPSS
[11] = DIGSA: crabgrass (Digitaria sanguinalis), read-out: Visual Growth Reduction (%) 14 Days After Application DIGSA
[12] = ECHSS, read-out: Visual Growth Reduction (%) 14 Days After Application ECHSS
[13] = ORYSS (crop), read-out: Visual Growth Reduction (%) 14 Days After Application ORYSS
[14] = SETFA: giant foxtail (Setaria faberi), read-out: Visual Growth Reduction (%) 14 Days After Application SETFA
[15] = SORVU: grain sorghum (Sorghum vulgare), read-out: Visual Growth Reduction (%) 14 Days After Application SORVU
[16] = TRZSS (crop), read-out: Visual Growth Reduction (%) 14 Days After Application TRZSS
[17] = ZEAMX: maize, corn (Zea mays), read-out: Visual Growth Reduction (%) 14 Days After Application ZEAMX

| Structure (SMILES) | melting point | pest or weed control at 70 g/ha [1, 3] | pest or weed control at 140 g/ha [1, 3] | pest or weed control at 70 g/ha [1, 4] | pest or weed control at 140 g/ha [1, 4] | pest or weed control at 70 g/ha [1, 5] | pest or weed control at 140 g/ha [1, 5] | pest or weed control at 70 g/ha [1, 6] | pest or weed control at 140 g/ha [1, 6] | pest or weed control at 70 g/ha [1, 7] | pest or weed control at 140 g/ha [1, 7] | pest or weed control at 70 g/ha [1, 8] | pest or weed control at 140 g/ha [1, 8] | pest or weed control at 70 g/ha [1, 9] | pest or weed control at 140 g/ha [1, 9] | pest or weed control at 70 g/ha [2, 10] | pest or weed control at 140 g/ha [2, 10] | pest or weed control at 70 g/ha [2, 11] | pest or weed control at 140 g/ha [2, 11] | pest or weed control at 70 g/ha [2, 12] | also measured |
| --- | --- | --- | --- | --- | --- | --- | --- | --- | --- | --- | --- | --- | --- | --- | --- | --- | --- | --- | --- | --- | --- |
| COC(=O)c1nc(-c2ccc(F)c(F)c2C)cc(N)c1Cl [Compound 69] | 120 to 126 °C | 95 to 100% | 95 to 100% | 95 to 100% | 95 to 100% | 85 to 94% | 95 to 100% | 95 to 100% | 95 to 100% | 0 to 29% | 0 to 29% | 85 to 94% | 85 to 94% | 0 to 29% | 0 to 29% | 45 to 59% | 95 to 100% | 0 to 29% | 0 to 29% | 0 to 29% | pest or weed control at 140 g/ha [2, 12]: 0 to 29%; pest or weed control at 70 g/ha [2, 13]: 0 to 29%; pest or weed control at 140 g/ha [2, 13]: 0 to 29%; pest or weed control at 70 g/ha [2, 14]: 0 to 29%; pest or weed control at 140 g/ha [2, 14]: 0 to 29%; pest or weed control at 70 g/ha [2, 15]: 0 to 29%; pest or weed control at 140 g/ha [2, 15]: 0 to 29%; pest or weed control at 70 g/ha [2, 16]: 0 to 29%; pest or weed control at 140 g/ha [2, 16]: 0 to 29%; pest or weed control at 70 g/ha [2, 17]: 0 to 29%; pest or weed control at 140 g/ha [2, 17]: 0 to 29% |
| COC(=O)c1nc(-c2ccc(Cl)c(F)c2OC)nc(N)c1OC [Compound 70, Methyl 6-amino-2-(4-chloro-3-fluoro-2-methoxyphenyl)-5-methoxypyrimidine-4-carboxylate] | 60 to 61 °C | 85 to 94% | 60 to 74% | 95 to 100% | 95 to 100% | 95 to 100% | 95 to 100% | 95 to 100% | 95 to 100% | 0 to 29% | 0 to 29% | 95 to 100% | 95 to 100% | 0 to 29% | 0 to 29% | 0 to 29% | 0 to 29% | 0 to 29% | 0 to 29% | 0 to 29% | pest or weed control at 140 g/ha [2, 12]: 0 to 29%; pest or weed control at 70 g/ha [2, 13]: 0 to 29%; pest or weed control at 140 g/ha [2, 13]: 0 to 29%; pest or weed control at 70 g/ha [2, 14]: 0 to 29%; pest or weed control at 140 g/ha [2, 14]: 0 to 29%; pest or weed control at 70 g/ha [2, 15]: 0 to 29%; pest or weed control at 140 g/ha [2, 15]: 0 to 29%; pest or weed control at 70 g/ha [2, 16]: 0 to 29%; pest or weed control at 140 g/ha [2, 16]: 0 to 29%; pest or weed control at 70 g/ha [2, 17]: 0 to 29%; pest or weed control at 140 g/ha [2, 17]: 0 to 29% |
| COC(=O)c1nc(-c2ccc(OC(F)F)nc2)c(F)c(N)c1Cl [Compound 71] | 134 to 136 °C | 85 to 94% | 85 to 94% | 0 to 29% | 0 to 29% | 30 to 44% | 45 to 59% | 85 to 94% | 85 to 94% | 95 to 100% | 95 to 100% | 85 to 94% | 85 to 94% | 0 to 29% | 0 to 29% | 0 to 29% | 45 to 59% | 75 to 84% | 60 to 74% | 60 to 74% | pest or weed control at 140 g/ha [2, 12]: 75 to 84%; pest or weed control at 70 g/ha [2, 13]: 0 to 29%; pest or weed control at 140 g/ha [2, 13]: 0 to 29%; pest or weed control at 70 g/ha [2, 14]: 75 to 84%; pest or weed control at 140 g/ha [2, 14]: 85 to 94%; pest or weed control at 70 g/ha [2, 15]: 60 to 74%; pest or weed control at 140 g/ha [2, 15]: 75 to 84%; pest or weed control at 70 g/ha [2, 16]: 45 to 59%; pest or weed control at 140 g/ha [2, 16]: 45 to 59%; pest or weed control at 70 g/ha [2, 17]: 0 to 29%; pest or weed control at 140 g/ha [2, 17]: 60 to 74% |

From US10765114B2, “4-amino-6-(pyridyl and 2-substitutedphenyl)-picolinates and 6-amino-2-(pyridyl and 2-substitutedphenyl)-pyrimidine-4-carboxylates and their use as herbicides” (Dow AgroSciences LLC, priority 2013, dated 2020)
